# Results: patent US6737383B1, “Herbicidal oxadiazolidines” (priority 1999, dated 2004)
# Assays:
# bamyardgrass = assay: Test B flood test barnyardgrass; type: in vivo, Echinochloa crus-galli
# Procedure, shortened: (§1)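 Flood test on plants grown to the 2-leaf stage; treated plants kept in greenhouse twelve to sixteen days, then visually rated against controls on a 0 (no effect) to 10 (complete control) scale.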
# bedstraw = assay: Test B pre/postemergence bedstraw; type: in vivo, Galium aparine; settings: Postemergence
# Procedure, shortened: (§2)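 Response is a visual 0-to-10 score relative to untreated plants, where 0 means no effect and 10 means complete control, taken twelve to sixteen days after application. Treatments went onto soil at planting and onto foliage of 1- to 4-leaf plants, using a surfactant-containing non-phytotoxic solvent.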
# soybean = assay: Test B pre/postemergence soybean; type: in vivo, Glycine max; settings: for Soybean plant response rating: Postemergence; for Plant response rating, Soybean: Preemergence
# Procedure, shortened: as §2
# surinam grass = assay: Test B pre/postemergence surinam grass; type: in vivo, Brachiaria decumbens; settings: for B. signalgrass plant response rating: Postemergence; for Plant response rating, B. signalgrass: Preemergence
# Procedure, shortened: as §2
# sugar beet = assay: Test B pre/postemergence sugar beet; type: in vivo, Beta vulgaris; settings: for Sugarbeets plant response rating: Postemergence; for Plant response rating, Sugarbeets: Preemergence
# Procedure, shortened: as §2
# duck salad = assay: Test B flood test duck salad; type: in vivo, Heteranthera limosa
# Procedure, shortened: as §1
# cocklebur = assay: Test B pre/postemergence cocklebur; type: in vivo, Xanthium strumarium; settings: for Cocklebur plant response rating: Postemergence; for Plant response rating, Cocklebur: Preemergence
# Procedure, shortened: as §2
# crabgrass = assay: Test B pre/postemergence crabgrass; type: in vivo, Digitaria sanguinalis; settings: for Crabgrass plant response rating: Postemergence; for Plant response rating, Crabgrass: Preemergence
# Procedure, shortened: as §2
# rice = assay: Test B flood test rice; type: in vivo, Oryza sativa
# Procedure, shortened: as §1
# corn = assay: Test B pre/postemergence corn; type: in vivo, Zea mays; settings: for Corn plant response rating: Postemergence; for Plant response rating, Corn: Preemergence
# Procedure, shortened: as §2
# smallflower flatsedge = assay: Test B flood test smallflower flatsedge; type: in vivo, Cyperus difformis
# Procedure, shortened: as §1
# [1] = Pre-emergence, Rate 1000 g/ha, scale 0 to 10 (0 no effect, 10 complete control)
# [2] = Rate 125 g/ha, under heading Pre-emergence, flood test species, visual evaluation after twelve to sixteen days
# [3] = Rate 250 g/ha, Pre-emergence (flood test species), scale 0 to 10, 0 is no effect, 10 is complete control
# [4] = Rate 500 g/ha, Pre-emergence section of Table B, 0 to 10 scale (0 no effect, 10 complete control)
# [5] = Rate 125 g/ha, scale of 0 to 10 where 0 is no effect and 10 is complete control
# [6] = Rate 250 g/ha, scale 0 to 10, 0 is no effect, 10 is complete control
# [7] = Rate 500 g/ha, scale 0 to 10, 0 is no effect, 10 is complete control
# [8] = Rate 500 g/ha, scale of 0 to 10 where 0 is no effect and 10 is complete control
# [9] = Rate 1000 g/ha, scale 0 to 10 (0 no effect, 10 complete control)
# [10] = Rate 250 g/ha, scale 0 to 10 (0 no effect, 10 complete control)
structure (smiles),measurement,setting,value
COC(=O)C(CCO)n1c(=O)on(C(=O)N(c2ccc(Cl)cc2)C(C)C)c1=O (stereo not shown) [Compound 679],Barnyardgrass plant response rating,bamyardgrass; [1],0
same,"Barnyardgrass plant response rating (0 to 10 scale, 0 is no effect, 10 is complete control)",bamyardgrass; [2],0
same,Barnyardgrass plant response rating,bamyardgrass; [3],0
same,Barnyardgrass plant response rating,bamyardgrass; [4],0
same,Bedstraw plant response rating,bedstraw; [5],0
same,Bedstraw plant response rating,bedstraw; [6],0
same,Bedstraw plant response rating,bedstraw; [7],0
same,Soybean plant response rating,soybean; [5],0
same,"Plant response rating, Soybean",soybean; [5],0
same,"Plant response rating, Soybean",soybean; [8],0
same,Soybean plant response rating,soybean; [6],1
same,Soybean plant response rating,soybean; [7],1
same,"Plant response rating, Soybean",soybean; [9],0
same,B. signalgrass plant response rating,surinam grass; [5],0
same,B. signalgrass plant response rating,surinam grass; [9],0
same,"Plant response rating, B. signalgrass",surinam grass; [5],0
same,"Plant response rating, B. signalgrass",surinam grass; [10],0
same,"Plant response rating, B. signalgrass",surinam grass; [8],0
same,B. signalgrass plant response rating,surinam grass; [6],0
same,B. signalgrass plant response rating,surinam grass; [7],0
same,"Plant response rating, B. signalgrass",surinam grass; [9],0
same,Sugarbeets plant response rating,sugar beet; [5],0
same,"Plant response rating, Sugarbeets",sugar beet; [5],0
same,"Plant response rating, Sugarbeets",sugar beet; [8],0
same,Sugarbeets plant response rating,sugar beet; [6],0
same,Sugarbeets plant response rating,sugar beet; [7],0
same,"Plant response rating, Sugarbeets",sugar beet; [9],0
same,Ducksalad plant response rating,duck salad; [1],0
same,"Ducksalad plant response rating (0 to 10 scale, 0 is no effect, 10 is complete control)",duck salad; [2],0
same,Ducksalad plant response rating,duck salad; [3],0
same,Ducksalad plant response rating,duck salad; [4],0
same,Cocklebur plant response rating,cocklebur; [5],0
same,Cocklebur plant response rating,cocklebur; [9],1
same,"Plant response rating, Cocklebur",cocklebur; [5],0
same,"Plant response rating, Cocklebur",cocklebur; [10],0
same,"Plant response rating, Cocklebur",cocklebur; [8],0
same,Cocklebur plant response rating,cocklebur; [6],0
same,Cocklebur plant response rating,cocklebur; [7],0
same,"Plant response rating, Cocklebur",cocklebur; [9],0
same,Crabgrass plant response rating,crabgrass; [5],0
same,Crabgrass plant response rating,crabgrass; [9],2
same,"Plant response rating, Crabgrass",crabgrass; [5],0
same,"Plant response rating, Crabgrass",crabgrass; [10],0
same,"Plant response rating, Crabgrass",crabgrass; [8],1
same,Crabgrass plant response rating,crabgrass; [6],0
same,"Plant response rating, Crabgrass",crabgrass; [9],3
same,Rice plant response rating,rice; [1],0
same,"Rice plant response rating (0 to 10 scale, 0 is no effect, 10 is complete control)",rice; [2],0
same,Rice plant response rating,rice; [3],0
same,Rice plant response rating,rice; [4],0
same,Corn plant response rating,corn; [5],0
same,Corn plant response rating,corn; [9],0
same,"Plant response rating, Corn",corn; [5],0
same,"Plant response rating, Corn",corn; [10],0
same,"Plant response rating, Corn",corn; [8],0
same,Corn plant response rating,corn; [6],0
same,Corn plant response rating,corn; [7],0
same,"Plant response rating, Corn",corn; [9],2
same,S. Flatsedge plant response rating,smallflower flatsedge; [1],0
same,"S. Flatsedge plant response rating (0 to 10 scale, 0 is no effect, 10 is complete control)",smallflower flatsedge; [2],0
same,S. Flatsedge plant response rating,smallflower flatsedge; [3],0
